Paper PMC12394750, “2H-1,4-Benzoxazin-3(4H)-one linked 1,2,3-triazole derivatives and their study on inducing DNA damage in tumor cells” (Frontiers in Pharmacology, 2025)

Key:
Huh-7 cells [1] = assay: RT-PCR gene expression; type: cell-based, human; settings: Huh-7, 72 h; for Caspase-7 gene expression: c5, c14 30 μM; for ATG7 gene expression / H2AX gene expression / Keap1 gene expression / TNF-α gene expression / p21 gene expression / p53 gene expression: c5, c14, c16 30 μM; for Bax gene expression / Bcl2 gene expression: c14, c16 30 μM
Protocol: To investigate the molecular mechanisms underlying the anti-tumor activity of 2H-1,4-benzoxazin-3(4H)-one linked 1,2,3-triazole derivatives, we examined the expression of key genes involved in cell growth and death, including those related to DNA damage, oxidative stress, apoptosis, and autophagy. Huh-7 cells were treated with compounds c5 (30 μM), c14 (30 μM), c16 (30 μM), and c18 (20 μM) for 72 h, followed by RT-PCR analysis.
FIGURE 5 Compounds c5, c14, c16, and c18 increased the gene expression. (A–D) Huh-7 cells were treated with different concentrations of compounds c5, c14, c16, and c18 (20 or 30 μM) for 72 h. Gene expressions were detected by RT-PCR. Data were presented as means ± SEM; *P < 0.05.
Huh-7 cells were seeded in a 12-well plate and treated with compounds for 72 h. Total RNA was extracted using TRIzol reagent (Ambion, United States), and RT-PCR was performed using PowerUp™ SYBR™ Green Master Mix (ABI, United States). Gene expression was normalized to GAPDH. Values were expressed as mean ± SEM. Statistical significance was assessed using a two-tailed Student’s t-test. P < 0.05 was considered statistically significant.

A549 (lung cancer) = assay: CCK-8 cell viability, A549; type: cell-based; settings: Homo sapiens, 72 h
Protocol: (§1) To assess the cytotoxic potential of the newly synthesized compounds c1–c20, a panel of human tumor cell lines—including Huh-7 (hepatocellular carcinoma), MCF-7 (breast cancer), and A549 (lung cancer)—was treated with each compound at a concentration of 50 μM for 72 h. Cell viability and cytotoxicity were evaluated using the CCK-8 assay.
(§2) Cells were cultured in DMEM or RPMI 1640 medium with 10% FBS and 1% penicillin/streptomycin at 37 °C and 5% CO2. A CCK-8 assay was performed with several human cancer cell lines, including A549, Huh-7, MCF-7, HCT-116, and SKOV3, according to the instructions. Cells were plated at a density of 1,000–3,000 cells per well in a 96-well plate. After 24-h incubation, cells were treated with 40 μM compounds for 48 h or 50 μM compounds for 72 h. Cell viability was measured by adding 10 μL per well of CCK-8 reagent, which was dissolved in the cell culture medium, for 1 hour. Absorbance was taken at 450 nm using a microplate reader. The IC50 values of the compounds were further determined. Cells were seeded in a 96-well plate at a density of 1 × 10^3 cells/well. After adhering overnight, cells treated with […] concentrations (10 μM, 20 μM, 40 µM, or 80 μM) were used to draw the dose–response curve, and IC50 values were calculated by GraphPad Prism software. The CCK-8 assay was performed in triplicate, and each experiment was repeated at least three times. The results were expressed as mean ± SEM, and P < 0.05 was considered statistically significant.

Huh-7 cells [2] = assay: DNA damage staining (γ-H2AX); type: cell-based, human; settings: Huh-7, 10, 20 or 30 μM, 24 h
Protocol: In order to further verify the effects of 2H-1,4-benzoxazin-3(4H)-one linked 1,2,3-triazole derivatives on DNA damage, Huh-7 cells were treated with different concentrations (10 μM, 20 μM, or 30 μM) of compounds c5, c14, c16, and c18. After 24 h of treatment, cells were detected with the DNA damage assay kit and observed under a fluorescence microscope.
FIGURE 7 Compounds c5, c14, c16, and c18 affected DNA damage. (A–D) DNA damage detection shown by γ-H2AX staining in Huh-7 cells treated with compounds c5, c14, c16, and c18 (10 μM, 20 μM, or 30 μM).
Huh-7 cells with a density of 2 × 10^3 cells/well were seeded in 96-well plates. Different doses (0 μM, 5 μM, 10 μM, 20 μM, or 30 μM) of the compounds were added to cells for 24 h. A DNA Damage Detection Kit was used to dye the cells. The cell nucleus was stained blue, and DNA-damaged cells were stained green. The cells were observed and photographed by a fluorescent microscope.

[3] = CCK-8 cell viability, L02; type: cell-based; settings: human, L02 normal liver cells
MCF-7 (breast cancer) = assay: CCK-8 cell viability, MCF-7; type: cell-based; settings: Homo sapiens, MCF7, 72 h
Protocol: as §1, §2

[4] = test system: Huh-7 (hepatocellular carcinoma); assay: CCK-8 cell viability / IC50, Huh-7; type: cell-based, human; settings: Homo sapiens, Huh-7, 72 h; for viability at 50 µM: CCK-8; for IC50: CCK-8 dose-response
Protocol: as §1, §2

Huh-7 cells [5] = assay: Annexin V-FITC/PI apoptosis flow cytometry; type: cell-based, human; settings: Huh-7, 10, 20 or 30 μM, 72 h
Protocol: Apoptosis, a programmed form of cell death, was investigated to understand the molecular mechanisms behind the anti-proliferative effects of the novel compounds. Huh-7 cells were treated with various concentrations (10 μM, 20 μM, or 30 μM) of compounds c5, c14, c16, and c18 for 72 h. The cells were then stained with Annexin V-FITC and propidium iodide (PI) and analyzed by flow cytometry to determine the proportion of apoptotic cells.
Cells were plated at a density of 3 × 10^5 cells per well in a 6-well plate. Different concentrations of compounds were added to cells for 72 h. Then, cells were collected and washed with PBS. Annexin V-FITC and propidium iodide were then added to stained cells for 20 min. Apoptotic cells were quantified by a flow cytometer, and raw data were further analyzed by Flow Jo software v10. Values were expressed as mean ± SEM. Statistical significance was assessed using one-way ANOVA followed by the Student–Newman–Keuls test. P < 0.05 was considered statistically significant. Data were visualized using GraphPad Prism.

Compound	Caspase-7 gene expression (Huh-7 cells [1])	ATG7 gene expression (Huh-7 cells [1]; c18 20 μM)	H2AX gene expression (Huh-7 cells [1]; c18 20 μM)	Keap1 gene expression (Huh-7 cells [1]; c18 20 μM)	TNF-α gene expression (Huh-7 cells [1]; c18 20 μM)	p21 gene expression (Huh-7 cells [1]; c18 20 μM)	p53 gene expression (Huh-7 cells [1]; c18 20 μM)	viability at 50 µM (A549 (lung cancer))	DNA damage (γ-H2AX staining) (Huh-7 cells [2])	viability at 72 h, 50 µM [3]	viability at 50 µM (MCF-7 (breast cancer))	viability at 50 µM [4]	IC50 [4]	Apoptosis (proportion of apoptotic cells) (Huh-7 cells [5])	Bax gene expression (Huh-7 cells [1])	Bcl2 gene expression (Huh-7 cells [1])	other results
O=C1COc2cc(NC(=O)c3cccc(-c4cn(Cc5ccc(Br)cc5)nn4)c3)ccc2N1 [compound c5, 3-(1-(4-bromobenzyl)-1H-1,2,3-triazol-4-yl)-N-(3-oxo-3,4-dihydro-2H-benzo[b][1,4]oxazin-7-yl)benzamide]	notably increased	downregulated	no significant changes	significantly upregulated	significantly upregulated	no significant changes	no significant changes	90.8 ± 5.32%	significantly induce cell DNA damage	101 ± 3.35%	107 ± 2.85%	15.1 ± 0.43%	28.5 ± 0.29 µM	significant, dose-dependent increases			Atg5 gene expression (Huh-7 cells [1]; c5 30 μM): remained unchanged; Gpx4 gene expression (Huh-7 cells [1]; c5 30 μM): either downregulated or unchanged; Nrf2 gene expression (Huh-7 cells [1]; c5 30 μM): either downregulated or unchanged
O=C1COc2cc(NC(=O)c3cccc(-c4cn(Cc5cccc(F)c5)nn4)c3)ccc2N1 [compound c14, 3-(1-(3-fluorobenzyl)-1H-1,2,3-triazol-4-yl)-N-(3-oxo-3,4-dihydro-2H-benzo[b][1,4]oxazin-7-yl)benzamide]	no significant changes		significantly upregulated	significantly increased		unchanged or downregulated	unchanged or downregulated	77.5 ± 3.1%	significantly induce cell DNA damage	116 ± 1.18%	106 ± 1.48%	18.1 ± 0.76%	32.6 ± 1.23 µM	significant, dose-dependent increases	no significant changes	significantly increased	autophagy-related gene expression (Huh-7 cells [1]; c14 30 μM): No differences; caspase-6 gene expression (Huh-7 cells [1]; c14 30 μM): no significant changes
O=C1COc2cc(NC(=O)c3cccc(-c4cn(Cc5ccc(C(F)(F)F)cc5)nn4)c3)ccc2N1 [compound c16, N-(3-oxo-3,4-dihydro-2H-benzo[b][1,4]oxazin-7-yl)-3-(1-(4-(trifluoromethyl)benzyl)-1H-1,2,3-triazol-4-yl)benzamide]		downregulated	markedly upregulated		markedly upregulated		markedly upregulated	76.8 ± 4.31%	significantly induce cell DNA damage	117 ± 1.41%	101.6 ± 0.92%	17.7 ± 1.27%	31.87 ± 0.04 µM	significant, dose-dependent increases	elevated	elevated	
O=C1COc2cc(NC(=O)c3cccc(-c4cn(Cc5ccc(Cl)cc5)nn4)c3)ccc2N1 [compound c18, 3-(1-(4-chlorobenzyl)-1H-1,2,3-triazol-4-yl)-N-(3-oxo-3,4-dihydro-2H-benzo[b][1,4]oxazin-7-yl)benzamide]		downregulated		dramatically upregulated		dramatically upregulated		89.8 ± 2.89%	significantly induce cell DNA damage	117 ± 1.27%	103 ± 1.83%	17.1 ± 0.43%	19.05 ± 0.12 µM	significant, dose-dependent increases			apoptosis-related gene expression (Huh-7 cells [1]; c18 20 μM): no changes
